Patent US20040023884A1, “Biologically active peptides from functional domains of bactericidal/permeability-increasing protein and uses thereof” (priority 1993, published 2004)
Ends that are not written are not given here.

Columns and labels:
E. coli O4:K12 = test: Broth bactericidal assay, E. coli O4:K12; type: cell-based; conditions: FIG. 11k
E. coli O86a:K61 = test: Broth bactericidal assay, E. coli O86a:K61; type: cell-based; conditions: FIG. 11j
Salmonella typhurium = test: Radial diffusion bactericidal assay, Salmonella typhurium; type: cell-based; conditions: FIG. 11h
E. coli 86a:K61 = test: Bactericidal assay performed in human serum, E. coli O86a:K61; type: cell-based; conditions: FIG. 11l
Source text: FIG. 11l is a graph showing the results of BPI functional domain peptide BPI.30 in bactericidal assays performed in human serum;

Candida albicans = type: cell-based
[1] = test system: Klebsiella pneumoniae 19645; test: Radial diffusion bactericidal assay, antibiotic resistant Klebsiella pneumoniae 19645; type: cell-based
Procedure: (§1) These studies were conducted substantially following the procedures used in Example 2.
In order to test the bactericidal activity of BPI peptides on antibiotic resistant strains of Klebsiella pneumoniae, the multi-resistant clinically isolated strain 19645 was tested as in Example 2 and above. […] This strain was obtained from the Baxter Microscan® library (Sacramento, Calif.). An overnight culture of Klebsiella pneumoniae 19645 and a non-resistant strain (ATCC 29011) were diluted 1:50 into fresh tryptic soy broth and incubated for 3 hours at 37° C. to attain log phase. The overnight cultures were tested as described in Example 2 and part A above.

[2] = LPS binding by tryptophan fluorescence quenching
Source text: (§2) The naturally-occurring amino acid tryptophan can emit light (i.e., it fluoresces) having a wavelength between 300 and 400 nm after excitation with light having a wavelength of between about 280 nm and 290 nm, preferably 285 nm. The amount of emitted light produced by such fluorescence is known to be affected by the local environment, including pH and buffer conditions, as well as binding interactions between proteins and other molecules. Some BPI functional domain peptides derived from domains II and III contain tryptophan residues, and tryptophan fluorescence was used to assay binding interactions between the BPI functional domain peptides of the invention and LPS or heparin.
(§3) Tryptophan fluorescence of the BPI functional domain peptides of the invention was determined in the presence or absence of LPS or heparin using a SPEX Fluorolog fluorimeter. Samples were excited with 285 nm light using a 0.25 nm slitwidth. Emission wavelengths were scanned between 300-400 nm using a 1.25 nm slitwidth. Data were accumulated as the average of three determinations performed over an approximately 5 min time span. Samples were maintained at 25° C. or 37° C. during the course of the experiments using a circulating water bath. Crab endotoxin binding protein (CEBP), a protein wherein the intrinsic fluorescence of tryptophan residues is affected by binding to LPS, was used as a positive control. (See Wainwright et al., 1990, Cellular and Molecular Aspects of Endotoxin Reactions, Nowotny et al., eds., Elsevier Science Publishing B.V., The Netherlands, pp. 315-325).
(§4) Kd values were determined by Scatchard-type Stern-Volmer plots of the quenching data as the negative inverse of the slope of such plots. Comparing the data for BPI.10, BPI.46 and BPI.47, it is seen that as the Kd decreased (indicating an increase in avidity for LPS), the percent fluorescence quenching increased. The differences between these peptides include replacement of basic and polar amino acid residues with non-polar residues in […] as compared with BPI.10. In contrast, as the Kd of heparin binding decreased, a corresponding increase in the percentage of fluorescence quenching was not detected.

[3] = test system: multi-resistant strain E. coli 19536; test: Radial diffusion bactericidal assay, multi-antibiotic resistant E. coli 19536; type: cell-based
Procedure: as §1
In order to test the bactericidal activity of BPI peptides against multi-antibiotic resistant E. coli, a multi-resistant strain E. coli 19536 (ampR 16 μg/mL; ceftazidimeR>16 μg/mL; ceftriazoneR>16 μg/mL) was tested. This strain is a clinical isolate obtained from the Baxter Microscan® library (Sacramento, Calif.). An overnight culture of E. coli 19536 was tested as described in Example 2 and part A above. Test BPI peptides were 2-fold serially diluted in D-PBS starting at about 1 mg/mL.

[4] = Heparin binding by tryptophan fluorescence quenching
Source text: as §2, §3, §4

KWKAQKRFLKKSKVGWLIQLFHKK-NH2 (C-terminus assumed) [BPI.30]
bactericidal activity (in words) (E. coli O4:K12): showed bactericidal activity
bactericidal activity (in words) (E. coli O86a:K61): showed bactericidal activity
bactericidal activity (in words) (Salmonella typhurium): showed bactericidal activity
bactericidal activity (in words) (E. coli 86a:K61): showed bactericidal activity

KSKVGWLIQLFHKK-NH2 (C-terminus assumed) [BPI.13]
MIC C. alb (Candida albicans): 6.25 µg/mL

KWKAQKRFLKKWKAQKRFLK-NH2 (C-terminus assumed) [BPI.7]
bactericidal activity (in words) [1]: active against antibiotic resistant Klebsiella

KWKAAARFLKKWKAAARFLK [BPI.48]
bactericidal activity (in words) [1]: active against antibiotic resistant Klebsiella
Quenching LPS [2]: 62%
Kd ([2]; Stern-Volmer plots): 83 nM
bactericidal activity (in words) [3]: activity against multi-antibiotic resistant E. coli
Quenching Heparin [4]: 41%
Kd ([4]; Stern-Volmer plots): 800 nM
